Article PMC4163640 (2014)

Tests used:
Test in all cases: fluorescence titration
[1] = tested on: G4 (DNA, G4) TTTTGGGGTTTT; conditions: K+ 10 mM, Mg2+ 1 mM; 50 mM Tris-borate pH 8.3 (TB), 25 °C; 1:1 model
[2] = tested on: G8 (DNA, G4) TTTTGGGGGGGGTTTT; conditions: K+ 10 mM, Mg2+ 1 mM; 50 mM Tris-borate pH 8.3 (TB), 25 °C; 1:1 model
[3] = tested on: G4T4G4 (DNA, G4) GGGGTTTTGGGG; conditions: K+ 5 mM, Li+ 95 mM; 10 mM lithium cacodylate pH 7.2 (5K), 25 °C; 1:1 model

- Ka [1]: (1.4 ± 0.2) × 10^6 L·mol^-1
- Ka [2]: (1.7 ± 0.2) × 10^6 L·mol^-1
- Ka [3]: (1.26 ± 0.07) × 10^7 L·mol^-1
SMILES: CCc1c(C)c2cc3nc(cc4nc(cc5c(CC)c(C)c(cc1[nH]2)n5C)C(C)=C4CCC(=O)O)C(CCC(=O)O)=C3C
